Test results taken from patent publication US20040123344A1, “Novel gene encoding an f-box protein which regulates leaf longevity in arabidopsis thaliana and mutant gene thereof” (priority 2000, published 2004).

T1: 35S-labeled ORE9 (50-693), in vitro translated (Arabidopsis thaliana, UniProt Q9SIM9 50-693)
T1 sequence: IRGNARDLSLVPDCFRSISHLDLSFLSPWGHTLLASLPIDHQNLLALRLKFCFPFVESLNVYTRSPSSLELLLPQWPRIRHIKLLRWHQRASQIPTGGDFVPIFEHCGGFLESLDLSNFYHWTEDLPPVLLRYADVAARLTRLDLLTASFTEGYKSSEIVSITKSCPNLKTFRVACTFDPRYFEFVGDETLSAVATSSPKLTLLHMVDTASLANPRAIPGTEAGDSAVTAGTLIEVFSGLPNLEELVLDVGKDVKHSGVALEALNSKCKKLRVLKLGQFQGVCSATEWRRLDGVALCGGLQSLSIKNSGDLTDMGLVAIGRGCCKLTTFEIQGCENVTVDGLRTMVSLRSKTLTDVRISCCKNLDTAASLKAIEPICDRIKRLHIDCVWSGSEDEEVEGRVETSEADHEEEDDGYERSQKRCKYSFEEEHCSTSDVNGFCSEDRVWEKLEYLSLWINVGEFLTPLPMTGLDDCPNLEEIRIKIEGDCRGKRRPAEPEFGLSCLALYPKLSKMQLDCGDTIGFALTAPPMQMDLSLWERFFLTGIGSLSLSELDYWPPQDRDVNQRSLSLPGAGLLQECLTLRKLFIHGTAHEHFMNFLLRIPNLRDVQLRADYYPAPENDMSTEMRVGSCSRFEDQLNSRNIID

B1: GAL4-AD fusion of ASK2(1-172), expressed from pGAD424-ASK2(1-172) [4] (other, Arabidopsis, UniProt Q9FHW7 1-171, looked up, not shown: large carriers)
chain: MSTVRKITLKSSDGENFEIDEAVALESQTIKHMIEDDCTDNGIPLPNVTSKILSKVIEYCKRHVEAAEKSETTADAAAATTTTTVASGSSDEDLKTWDSEFIKVDQGTLFDLILAANYLNIKGLLDLTCQTVADMIKGKTPEEIRKTFNIKNDFTPEEEEEVRRENQWAFE
notes: range 1-172; Yeast two-hybrid prey; also called Arabidopsis SKP1 homolog 2
B2: GAL4-AD fusion of ASK1(1-160), expressed from pGAD424-ASK1(1-160) [3] (other, Arabidopsis, UniProt Q39255 1-160, looked up, not shown: large carriers)
chain: MSAKKIVLKSSDGESFEVEEAVALESQTIAHMVEDDCVDNGVPLPNVTSKILAKVIEYCKRHVEAAASKAEAVEGAATSDDDLKAWDADFMKIDQATLFELILAANYLNIKNLLDLTCQTVADMIKGKTPEEIRTTFNIKNDFTPEEEEEVRRENQWAFE
notes: range 1-160; also called Arabidopsis SKP1 homolog 1; pGAD-ASK1(1-160)[3]
B3: GST-ASK1 fusion protein (other, Arabidopsis, UniProt Q39255 1-160, looked up, not shown: a dimerising Fc or GST)
chain: B2 chain
notes: also called GSK-ASK1

Columns and labels:
[1] = tested on: wild type Arabidopsis thaliana leaves; experiment: Phytohormone treatment of detached leaves, photosynthetic activity (Fv/Fm of PSII); assay type: in vivo; settings: detached leaves at 12 DAE, 50 μM ABA or 50 μM MeJA in MES buffer pH 5.8, or 4.5 μM ethylene gas, three days at 22° C., continuous light
Experimental: (§1) In order to measure photosynthetic activities, a method of Oh S. A. et al., (Oh S. A. et al., Plant Mol. Biol. 30: 939, 1996) was used. First, the respective leaves were dark-treated for 15 minutes and measured for fluorescence of chlorophylls using a plant efficiency analyzer. The photosynthetic activity was expressed as photochemical efficiency of photosystemII (PSII) using a fluorescent property of chlorophylls. The photochemical efficiency was expressed as the ratio of maximum variable fluorescence (Fv) to maximum value of fluorescence (Fm) (Fv/Fm). As the ratio is increased, the photosynthesis efficiency improves.
(§2) Although senescence of leaves is known as a genetic programmed process, the initiation and progress of senescence can be changed by phytohormones, such as abscisic acid (ABA), methyl jasmonate (MeJA) and ethylene, that are plant growth inhibitory substances (Hensel et al., Plant Cell 5:553, 1993; Weidhase et al., Physiol. Plant 69:161, 1987; and Zeevaart et al, Annu. Rev. Plant Physiol. Plant Mol. Biol. 39:439, 1998). Thus, in this experiment, a change in leaf longevity of the ore9 mutant according to treatment with phytohormones was examined by measuring changes in photosynthetic activity and chlorophyll content. Detached leaves were floated in 3 mM 2-[N-morpholino]-ethanesulfonic acid (MES) buffer, pH 5.8, containing 50 μM ABA or 50 μM MeJA, while continuously being exposed to light. Treatment with ethylene was carried out by cultivation in a glass box containing 4.5 μM ethylene gas. The treatments with phytohormones as described above were carried out for three days at 22° C. with continuous exposure to light. At this time, 12 independent leaves at 12 DAE were used as samples, and the chlorophyll content and the photosynthetic activity were measured in the same manner as in Example 2.

ore9 mutant leaves = assay type: in vivo, Arabidopsis thaliana; settings: detached leaves at 12 DAE, 50 μM ABA or 50 μM MeJA in MES buffer pH 5.8, or 4.5 μM ethylene gas, three days at 22° C., continuous light
Experimental: as §1, §2

[2] = biological target: T2, GAL4-BD fusion of ORE9 (1-49), expressed from pGBT9-ORE9 (1-49) [1] (Arabidopsis thaliana); experiment: yeast two-hybrid assay, combination [1+4]
T2 construct: Yeast two-hybrid bait expressed in yeast HF7c; also called fragment containing only the F-box region of ORE9; pGBT-ORE9(1-49)[1]

[3] = biological target: T3, GAL4-BD fusion of ORE9 (50-693), expressed from pGBT9-ORE9 (50-693) [2] (Arabidopsis thaliana); experiment: yeast two-hybrid assay
T3 construct: Yeast two-hybrid bait expressed in yeast HF7c; also called ORE9 derivative from which the F-box region was removed

[4] = biological target: T1, 35S-labeled ORE9 (50-693), in vitro …; experiment: in vitro GST pull-down of 35S-labeled protein
Excerpt: In order to examine that ORE9 protein or derivatives thereof directly bind with ASK1, a GST-ASK1 fusion protein and a ³⁵S-labeled ORE9 protein produced by in vitro translation were subjected to in vitro binding assay. To obtain a glutathione S-transferase (GST) protein and a GST-ASK1 fusion protein, a vector pGEX (APBiotech, Co.) and a vector pGEX-ASK1 were constructed, which express the above proteins, respectively. Artificial sequences represented by SEQ ID NO: 14 and SEQ ID NO: 15 were used as PCR primers to amplify a gene encoding the ASK1 fragment. The resulting PCR product was digested with EcoRI and NcoI restriction enzymes, and inserted into the restriction enzyme sites of the pGEX vector. Escherichia coli BL21(DE3) pLysS was transformed with the resulting two vectors, and GST and GST-ASK1 fusion proteins were expressed. The GST and GST-ASK1 fusion proteins were purified by chromatography with glutathione-Sepharose 4B beads. The purified proteins was subjected to electrophoresis with SDS-polyacryamide gets, dyed with Coomassie blue, and measured for their amount. […]
The proteins were quantitatively analyzed with SDS-PAGE and BAS radioanalytic imaging system (Japan). […]

| Molecule | photosynthetic activity after treatment [1] [%] | photosynthetic ability maintained after treatment (ore9 mutant leaves) [%] | other results |
| --- | --- | --- | --- |
| CC1=CC(=O)CC(C)(C)[C@@]1(O)/C=C/C(C)=C\C(=O)O [ABA, abscisic acid] | 65 | 93 |  |
| CC/C=C\CC1C(=O)CCC1CC(=O)OC (stereo not drawn) [MeJA, methyl jasmonate] | 38 | 70 |  |
| C=C [ethylene] | 54 | 82 |  |
| B1 |  |  | binding result [2]: no binding |
| B2 |  |  | binding result [3]: no binding |
| B3 |  |  | binding result [4]: no binding |
